According to patent publication US12617797B2, “Substituted pyrazolo [1,5-a]pyrimidines having multimodal activity against pain” (ESTEVE PHARMACEUTICALS, S.A., priority 2020, dated 2026):

Assays:
[1] = molecular target: Human α2δ-1 subunit of Cav2.2 calcium channel (Homo sapiens, UniProt P54289); assay: Human α2δ-1 subunit of Cav2.2 calcium channel assay ([3H]-gabapentin binding); details: binding to the α2δ-1 subunit of voltage-gated calcium channels expressed as Ki; + also covers inhibition between 1% and 50%
Chain of Human α2δ-1 subunit of Cav2.2 calcium channel (P54289 25-1103): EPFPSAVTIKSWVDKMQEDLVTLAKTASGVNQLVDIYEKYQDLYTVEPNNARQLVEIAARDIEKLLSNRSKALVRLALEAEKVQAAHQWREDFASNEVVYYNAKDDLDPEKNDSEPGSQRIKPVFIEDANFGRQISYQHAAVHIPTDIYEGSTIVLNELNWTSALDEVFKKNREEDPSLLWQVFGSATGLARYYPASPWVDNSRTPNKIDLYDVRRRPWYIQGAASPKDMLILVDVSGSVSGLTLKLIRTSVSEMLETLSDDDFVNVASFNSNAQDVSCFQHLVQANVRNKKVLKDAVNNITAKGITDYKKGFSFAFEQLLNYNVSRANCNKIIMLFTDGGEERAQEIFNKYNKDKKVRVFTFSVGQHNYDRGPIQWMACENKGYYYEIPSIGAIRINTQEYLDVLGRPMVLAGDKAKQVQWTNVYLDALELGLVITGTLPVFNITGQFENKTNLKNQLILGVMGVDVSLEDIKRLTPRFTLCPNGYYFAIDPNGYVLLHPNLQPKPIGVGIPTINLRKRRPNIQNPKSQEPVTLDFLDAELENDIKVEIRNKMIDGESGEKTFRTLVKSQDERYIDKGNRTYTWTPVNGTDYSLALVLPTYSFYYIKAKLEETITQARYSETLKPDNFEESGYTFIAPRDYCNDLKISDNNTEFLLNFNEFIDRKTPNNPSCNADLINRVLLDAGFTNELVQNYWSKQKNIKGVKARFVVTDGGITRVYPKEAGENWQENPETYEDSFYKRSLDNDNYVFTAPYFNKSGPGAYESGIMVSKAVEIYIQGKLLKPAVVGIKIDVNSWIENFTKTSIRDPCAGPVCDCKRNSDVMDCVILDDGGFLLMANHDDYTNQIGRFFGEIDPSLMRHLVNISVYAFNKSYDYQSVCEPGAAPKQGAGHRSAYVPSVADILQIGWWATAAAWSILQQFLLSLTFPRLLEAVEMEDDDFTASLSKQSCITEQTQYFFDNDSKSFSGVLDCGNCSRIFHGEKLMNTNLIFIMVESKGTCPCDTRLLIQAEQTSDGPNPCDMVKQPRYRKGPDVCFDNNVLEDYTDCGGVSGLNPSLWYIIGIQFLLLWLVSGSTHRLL
Method in brief: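 Displacement of 15 nM [3H]-gabapentin from human α2δ-1-enriched membranes (Hepes-KOH 10 mM, pH 7.4; 27 °C, 60 min) read by filter binding and radioactivity counting. Values are single-point % inhibition (1 or 10 μM) or five-point Ki; 10 μM pregabalin sets NSB.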

Human σ1 receptor = molecular target: T1, Human σ1 receptor (Homo sapiens, UniProt Q99720); assay: Human σ1 receptor radioligand assay ([3H](+)-pentazocine binding, transfected HEK-293 membranes); details: binding to σ1 receptor expressed as Ki; + also covers inhibition between 1% and 50%; read-out: σ-1 binding
T1 construct: expressed in transfected cells; host or cells: HEK-293
T1 sequence (Q99720 whole entry): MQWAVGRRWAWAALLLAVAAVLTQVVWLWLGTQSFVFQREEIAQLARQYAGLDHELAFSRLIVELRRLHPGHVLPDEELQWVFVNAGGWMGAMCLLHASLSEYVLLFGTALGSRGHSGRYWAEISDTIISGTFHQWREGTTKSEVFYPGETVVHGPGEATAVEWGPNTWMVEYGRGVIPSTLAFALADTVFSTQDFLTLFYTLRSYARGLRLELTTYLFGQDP
Method in brief: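 Ki was derived from five test concentrations, or % inhibition was measured at a single 1 or 10 μM dose, against 5 nM [3H](+)-pentazocine. Incubation was 120 min at 37° C in 50 mM Tris-HCl pH 8 with 7 μg HEK-293 membranes, and 10 μM haloperidol set non-specific binding. Bound radioactivity was counted after filtration.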

Row | Ki [1] | Ki (Human σ1 receptor) | Compound
1 | 500 to 5000 nM | > 1000 nM | Cc1nn2c([C@@H]3CCCN([C@@H](CO)c4ccccc4)C3)ccnc2c1-c1ccncc1 [Example 109, (R)-2-((R)-3-(2-methyl-3-(pyridin-4-yl)pyrazolo[1,5-a]pyrimidin-7-yl)piperidin-1-yl)-2-phenylethanol]
2 | > 5000 nM | 500 to 1000 nM | Cc1nn2c(C3CCCN(Cc4ccccc4)C3)ccnc2c1N(C)Cc1ccccc1 (stereo not drawn) [Example 143, N-Benzyl-7-(1-benzylpiperidin-3-yl)-N,2-dimethylpyrazolo[1,5-a]pyrimidin-3-amine]
3 | 500 to 5000 nM | > 1000 nM | Cc1nn2c([C@H]3CCCN(Cc4ccccc4)C3)ccnc2c1CNC[C@H]1CCC(=O)NC1 [Example 245, (R)-5-((((7-((S)-1-Benzylpiperidin-3-yl)-2-methylpyrazolo[1,5-a]pyrimidin-3-yl)methyl)amino)methyl)piperidin-2-one]
4 | 500 to 5000 nM | > 1000 nM | Cc1cnc2c(Br)c(C)nn2c1C1CCCN(Cc2ccccc2)C1 (stereo not drawn) [Example 6, 7-(1-Benzylpiperidin-3-yl)-3-bromo-2,6-dimethylpyrazolo[1,5-a]pyrimidine]
5 | 500 to 5000 nM | > 1000 nM | CNCc1cn(-c2cccc(-c3c(C)nn4c(C5CCCN(Cc6ccccc6)C5)ccnc34)c2)nn1 (stereo not drawn) [Example 61, 1-(1-(3-(7-(1-Benzylpiperidin-3-yl)-2-methylpyrazolo[1,5-a]pyrimidin-3-yl)phenyl)-1H-1,2,3-triazol-4-yl)-N-methylmethanamine]
6 | 500 to 5000 nM | > 1000 nM | Cc1cc(C2CCCN(Cc3ccccc3)C2)n2nc(C)c(-c3ccncc3)c2n1 (stereo not drawn) [Example 59, 7-(1-Benzylpiperidin-3-yl)-2,5-dimethyl-3-(pyridin-4-yl)pyrazolo[1,5-a]pyrimidine]
7 | > 5000 nM | < 500 nM | CNCc1c(C)nn2c([C@@H]3CCCN(Cc4ccc(Cl)cc4)C3)ccnc12 [Example 212, (R)-1-(7-(1-(4-Chlorobenzyl)piperidin-3-yl)-2-methylpyrazolo[1,5-a]pyrimidin-3-yl)-N-methylmethanamine]
8 | 500 to 5000 nM | 500 to 1000 nM | Fc1ccccc1-c1cc2nccc(C3CCCN(Cc4ccccc4)C3)n2n1 (stereo not drawn) [Example 14, 7-(1-Benzylpiperidin-3-yl)-2-(2-fluorophenyl)pyrazolo[1,5-a]pyrimidine]
9 | > 5000 nM | > 1000 nM | Cc1nn2c([C@H]3CCCN([C@H](CO)c4ccccc4)C3)ccnc2c1-c1ccncc1 [Example 107, (S)-2-((S)-3-(2-methyl-3-(pyridin-4-yl)pyrazolo[1,5-a]pyrimidin-7-yl)piperidin-1-yl)-2-phenylethanol]
10 | > 5000 nM | > 1000 nM | Cc1cnccc1-c1c(C)nn2c(C3CCCN(Cc4ccccc4)C3)ccnc12 (stereo not drawn) [Example 49, 7-(1-Benzylpiperidin-3-yl)-2-methyl-3-(3-methylpyridin-4-yl)pyrazolo[1,5-a]pyrimidine]
11 | > 5000 nM | 500 to 1000 nM | c1ccc(CN2CCCC(c3ccnc4cc(-c5ccccc5)nn34)C2)cc1 (stereo not drawn) [Example 12, 7-(1-Benzylpiperidin-3-yl)-2-phenylpyrazolo[1,5-a]pyrimidine]
12 | 500 to 5000 nM | < 500 nM | Cc1nn2c([C@H]3CCCN(Cc4ccccc4)C3)ccnc2c1CNCC1CCOCC1 [Example 204, (S)-1-(7-(1-Benzylpiperidin-3-yl)-2-methylpyrazolo[1,5-a]pyrimidin-3-yl)-N-((tetrahydro-2H-pyran-4-yl)methyl)methanamine]
13 | > 5000 nM | 500 to 1000 nM | c1ccc(CN2CCCC(c3ccnc4c(N5CCCC5)cnn34)C2)cc1 (stereo not drawn) [Example 88, 7-(1-Benzylpiperidin-3-yl)-3-(pyrrolidin-1-yl)pyrazolo[1,5-a]pyrimidine]
14 | > 5000 nM | > 1000 nM | Cc1nn2c(C3CCCN(CC4CCOCC4)C3)ccnc2c1CNCC1CCOCC1 (stereo not drawn) [Example 185, 1-(2-Methyl-7-(1-((tetrahydro-2H-pyran-4-yl)methyl)piperidin-3-yl)pyrazolo[1,5-a]pyrimidin-3-yl)-N-((tetrahydro-2H-pyran-4-yl)methyl)methanamine]
15 | > 5000 nM | > 1000 nM | Cc1nn2c(C3CCCN(Cc4ccc(Cl)cc4)C3)ccnc2c1-c1ccc(C(N)=O)cc1 (stereo not drawn) [Example 129, 4-(7-(1-(4-Chlorobenzyl)piperidin-3-yl)-2-methylpyrazolo[1,5-a]pyrimidin-3-yl)benzamide]
16 | > 5000 nM | > 1000 nM | CN[C@H]1CCN(c2cc3nccc([C@H]4CCCN(Cc5ccccc5)C4)n3n2)C1 [Example 85, (S)-1-(7-((S)-1-Benzylpiperidin-3-yl)pyrazolo[1,5-a]pyrimidin-2-yl)-N-methylpyrrolidin-3-amine]

Row | Ki [1] | Ki (Human σ1 receptor) | Compound
17 | > 5000 nM | > 1000 nM | Cc1nn2c(C3CCCN(Cc4ccccc4)C3)ccnc2c1-c1ccccc1 (stereo not drawn) [Example 44, 7-(1-Benzylpiperidin-3-yl)-2-methyl-3-phenylpyrazolo[1,5-a]pyrimidine]
18 | > 5000 nM | > 1000 nM | Cc1nn2c(C3CCCN(Cc4ccc(Cl)cc4)C3)ccnc2c1-c1ccc(CO)nc1 (stereo not drawn) [Example 135, (5-(7-(1-(4-Chlorobenzyl)piperidin-3-yl)-2-methylpyrazolo[1,5-a]pyrimidin-3-yl)pyridin-2-yl)methanol]
19 | > 5000 nM | < 500 nM | Cc1nn2c(C3CCCN(Cc4ccc(Cl)cc4Cl)C3)ccnc2c1CN(C)C (stereo not drawn) [Example 186, 1-(7-(1-(2,4-Dichlorobenzyl)piperidin-3-yl)-2-methylpyrazolo[1,5-a]pyrimidin-3-yl)-N,N-dimethylmethanamine]
20 | 500 to 5000 nM | > 1000 nM | Cc1cnc2c(-c3ccncc3)cnn2c1C1CCCN(Cc2ccccn2)C1 (stereo not drawn) [Example 74, 6-Methyl-7-(1-(pyridin-2-ylmethyl)piperidin-3-yl)-3-(pyridin-4-yl)pyrazolo[1,5-a]pyrimidine]
21 | > 5000 nM | > 1000 nM | Cc1cc2nccc(C3CCCN(Cc4ccccc4F)C3)n2n1 (stereo not drawn) [Example 63, 7-(1-(2-Fluorobenzyl)piperidin-3-yl)-2-methylpyrazolo[1,5-a]pyrimidine]
22 | 500 to 5000 nM | 500 to 1000 nM | Cc1nn2c(C3CCCN(Cc4ccc(Cl)cc4)C3)ccnc2c1CNCC1CCN(S(C)(=O)=O)CC1 (stereo not drawn) [Example 179, 1-(7-(1-(4-Chlorobenzyl)piperidin-3-yl)-2-methylpyrazolo[1,5-a]pyrimidin-3-yl)-N-((1-(methylsulfonyl)piperidin-4-yl)methyl)methanamine]
23 | 500 to 5000 nM | > 1000 nM | Cc1cc2nccc(C3CCCN(Cc4c(F)cccc4F)C3)n2n1 (stereo not drawn) [Example 65, 7-(1-(2,6-Difluorobenzyl)piperidin-3-yl)-2-methylpyrazolo[1,5-a]pyrimidine]
24 | > 5000 nM | > 1000 nM | Clc1ccc(-c2cc3nccc(C4CCCN(Cc5ccccc5)C4)n3n2)cc1 (stereo not drawn) [Example 15, 7-(1-Benzylpiperidin-3-yl)-2-(4-chlorophenyl)pyrazolo[1,5-a]pyrimidine]
25 | 500 to 5000 nM | < 500 nM | Cc1nn2c(C3CCCN(Cc4ccc(Cl)cc4)C3)ccnc2c1CNCCc1ccccc1 (stereo not drawn) [Example 153, N-((7-(1-(4-Chlorobenzyl)piperidin-3-yl)-2-methylpyrazolo[1,5-a]pyrimidin-3-yl)methyl)-2-phenylethan-1-amine]
26 | 500 to 5000 nM | 500 to 1000 nM | Cc1nn2c(C3CCCN(Cc4ccccc4)C3)ccnc2c1N1CCCC1 (stereo not drawn) [Example 89, 7-(1-Benzylpiperidin-3-yl)-2-methyl-3-(pyrrolidin-1-yl)pyrazolo[1,5-a]pyrimidine]
27 | 500 to 5000 nM | > 1000 nM | Cc1nn2c(C3CCCN(Cc4ccccc4)C3)ccnc2c1CCCN (stereo not drawn) [Example 103, 3-(7-(1-Benzylpiperidin-3-yl)-2-methylpyrazolo[1,5-a]pyrimidin-3-yl)propan-1-amine]
28 | 500 to 5000 nM | < 500 nM | Cc1nn2c([C@H]3CCCN(Cc4ccc(F)cc4F)C3)ccnc2c1CNCC1CCOCC1 [Example 240, (S)-1-(7-(1-(2,4-Difluorobenzyl)piperidin-3-yl)-2-methylpyrazolo[1,5-a]pyrimidin-3-yl)-N-((tetrahydro-2H-pyran-4-yl)methyl)methanamine]
29 | 500 to 5000 nM | < 500 nM | Cc1nn2c(C3CCCN(Cc4cccc(F)c4)C3)ccnc2c1CNCC1CCOCC1 (stereo not drawn) [Example 181, 1-(7-(1-(3-Fluorobenzyl)piperidin-3-yl)-2-methylpyrazolo[1,5-a]pyrimidin-3-yl)-N-((tetrahydro-2H-pyran-4-yl)methyl)methanamine]
30 | 500 to 5000 nM | 500 to 1000 nM | Cc1nn2c(C3CCCN(Cc4ccc(Cl)cc4)C3)ccnc2c1CN(C)Cc1c(F)cccc1F (stereo not drawn) [Example 229, 1-(7-(1-(4-Chlorobenzyl)piperidin-3-yl)-2-methylpyrazolo[1,5-a]pyrimidin-3-yl)-N-(2,6-difluorobenzyl)-N-methylmethanamine]
31 | > 5000 nM | > 1000 nM | Cc1nn2c([C@@H]3CCCN([C@H](CO)c4ccccc4)C3)ccnc2c1-c1ccncc1 [Example 106, (S)-2-((R)-3-(2-Methyl-3-(pyridin-4-yl)pyrazolo[1,5-a]pyrimidin-7-yl)piperidin-1-yl)-2-phenylethanol]
32 | > 5000 nM | 500 to 1000 nM | c1ccc(CN2CCCC(c3ccnc4c(-c5ccccc5)cnn34)C2)cc1 (stereo not drawn) [Example 35, 7-(1-Benzylpiperidin-3-yl)-3-phenylpyrazolo[1,5-a]pyrimidine]

Row | Compound | Ki [1] | Ki (Human σ1 receptor)
33 | CN(c1cc2nccc(C3CCCN(Cc4ccccc4)C3)n2n1)C1CCNCC1 (stereo not drawn) [Example 82, 7-(1-Benzylpiperidin-3-yl)-N-methyl-N-(piperidin-4-yl)pyrazolo[1,5-a]pyrimidin-2-amine] | 500 to 5000 nM | > 1000 nM
